{"source": "paper PMC2861162", "about": "“Purified TPC Isoforms Form NAADP Receptors with Distinct Roles for Ca^2+ Signaling and Endolysosomal Trafficking” (Current Biology, 2010)", "key": {"SpTPC3": {"target": "T1, SpTPC3 (Strongylocentrotus purpuratus, UniProt B8PXK0)", "T1 construct": "endogenous full-length protein immunoprecipitated with anti-SpTPC3 serum from solubilized egg membranes (S10P100 fraction); possibly homodimer; may carry associated proteins", "T1 sequence (B8PXK0 1-840)": "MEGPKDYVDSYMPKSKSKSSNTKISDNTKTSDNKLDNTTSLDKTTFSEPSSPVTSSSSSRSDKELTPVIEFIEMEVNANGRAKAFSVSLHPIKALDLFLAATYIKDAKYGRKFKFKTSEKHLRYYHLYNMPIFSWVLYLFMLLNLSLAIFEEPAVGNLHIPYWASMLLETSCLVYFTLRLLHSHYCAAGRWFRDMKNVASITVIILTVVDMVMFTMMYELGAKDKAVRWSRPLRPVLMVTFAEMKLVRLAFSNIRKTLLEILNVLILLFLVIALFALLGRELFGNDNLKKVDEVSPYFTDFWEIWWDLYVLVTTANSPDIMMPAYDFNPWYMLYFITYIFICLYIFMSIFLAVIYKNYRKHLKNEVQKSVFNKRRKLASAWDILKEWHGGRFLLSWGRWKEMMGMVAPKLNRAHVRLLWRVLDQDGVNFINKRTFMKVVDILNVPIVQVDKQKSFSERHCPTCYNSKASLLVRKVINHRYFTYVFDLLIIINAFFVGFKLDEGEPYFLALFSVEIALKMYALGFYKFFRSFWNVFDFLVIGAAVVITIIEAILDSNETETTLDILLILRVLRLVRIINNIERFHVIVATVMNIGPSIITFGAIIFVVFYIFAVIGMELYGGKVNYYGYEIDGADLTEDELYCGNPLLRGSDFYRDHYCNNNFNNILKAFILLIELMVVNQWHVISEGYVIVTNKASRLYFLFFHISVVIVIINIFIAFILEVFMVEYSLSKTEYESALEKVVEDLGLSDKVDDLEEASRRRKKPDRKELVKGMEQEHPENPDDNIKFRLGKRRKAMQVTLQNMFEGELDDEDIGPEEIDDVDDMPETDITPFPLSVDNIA", "assay": "[…]NAADP competition binding on immunoprecipitate", "settings": "competitor against [32P]NAADP; immunopurified native complex; K+-dependent irreversible binding"}, "SpTPC1": {"target": "T2, SpTPC1 (Strongylocentrotus purpuratus, UniProt B8PXJ8)", "T2 construct": "endogenous full-length protein immunoprecipitated with anti-SpTPC1 serum from solubilized egg membranes (S10P100 fraction); native complex, may carry associated proteins", "T2 sequence (B8PXJ8 1-882)": "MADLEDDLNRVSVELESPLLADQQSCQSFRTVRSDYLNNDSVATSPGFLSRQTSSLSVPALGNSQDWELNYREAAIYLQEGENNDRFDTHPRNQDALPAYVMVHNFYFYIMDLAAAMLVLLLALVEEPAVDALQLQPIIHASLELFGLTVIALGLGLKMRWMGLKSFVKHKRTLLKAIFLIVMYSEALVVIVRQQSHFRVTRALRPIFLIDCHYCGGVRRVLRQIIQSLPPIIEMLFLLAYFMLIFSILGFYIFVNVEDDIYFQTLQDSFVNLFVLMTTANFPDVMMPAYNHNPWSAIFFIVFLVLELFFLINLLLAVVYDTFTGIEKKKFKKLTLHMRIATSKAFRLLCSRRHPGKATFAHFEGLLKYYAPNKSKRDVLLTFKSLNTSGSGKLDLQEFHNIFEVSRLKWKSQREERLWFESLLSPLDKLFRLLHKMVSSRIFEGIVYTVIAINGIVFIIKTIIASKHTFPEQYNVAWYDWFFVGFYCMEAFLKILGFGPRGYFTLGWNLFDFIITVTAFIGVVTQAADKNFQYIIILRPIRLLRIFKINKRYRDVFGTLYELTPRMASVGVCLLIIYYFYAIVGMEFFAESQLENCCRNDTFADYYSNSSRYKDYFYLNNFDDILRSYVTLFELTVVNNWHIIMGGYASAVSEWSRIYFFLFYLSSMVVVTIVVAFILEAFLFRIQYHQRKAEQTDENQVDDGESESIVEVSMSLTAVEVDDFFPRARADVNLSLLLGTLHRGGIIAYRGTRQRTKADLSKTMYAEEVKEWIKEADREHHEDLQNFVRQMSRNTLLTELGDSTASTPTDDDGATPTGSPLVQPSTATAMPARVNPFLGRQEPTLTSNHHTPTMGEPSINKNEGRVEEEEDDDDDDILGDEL", "assay": "[…]NAADP competition binding on immunoprecipitate", "settings": "competitor against [32P]NAADP; immunopurified native complex; K+-dependent irreversible binding"}}}
{"smiles": "Nc1ncnc2c1ncn2[C@@H]1O[C@H](COP(=O)(O)OP(=O)(O)OC[C@H]2O[C@@H]([n+]3cccc(C(=O)O)c3)[C@H](O)[C@@H]2O)[C@@H](O)[C@H]1OP(=O)(O)O", "note": "[NAADP]", "values": [{"measurement": "IC50", "setting": "SpTPC3", "value": 0.9, "unit": "nM"}, {"measurement": "IC50", "setting": "SpTPC1", "value": 1.4, "unit": "nM"}]}
